Tests used:
[1] = system: cut stems of chrysanthemums; assay: Roots-inducing and fixation-stimulating actions in cut stems of chrysanthemums (leaf spray); format: in vivo; parameters: Index for roots-induction, Total indexes: scale not given here; settings: 50th day; for Index for roots-induction, cutting 1 / Index for roots-induction, cutting 2 / Index for roots-induction, cutting 3 / Index for roots-induction, cutting 4 / Index for roots-induction, cutting 5 / Index for roots-induction, cutting 6 / Index for roots-induction, cutting 7 / Index for roots-induction, cutting 8: 5 ppm water solution sprayed once onto leaves, 8 cuttings; for Index for roots-induction, Total indexes: sum of the indexes of 8 cuttings, 5 ppm spray, non-treatment 7
Description: Stems of chrysanthemums were cut out by 5 cm from the part at 5-10 cm from the top to prepare cuttings with 2 leaves. The water solution of the tested compound (5 ppm) was sprayed once in a misty manner through an mascot spray onto the surface of leaves so that the surface got wet uniformly for each 8 cuttings. The cuttings in the pots were grew in a cabinet where the temperature was controlled in the range of 15 (C at lowest at night to 30 (C at highest in the daytime. Water was supplied appropriately according to the extent of dryness of soil during the cultivation of plants.
On the 50th day after the tested compound was sprayed, roots-induction of each cutting was checked by diggings up, and its extent was shown as an index for each rank.

[2] = system: cuttings of violets without roots; assay: Roots-inducing and fixation-stimulating actions in cuttings of violets (leaf spray); format: in vivo
Method: Seedlings of violets were used in the experiment. The lower part of the seedlings of violets was cut and cuttings of violets without roots were prepared. Each cutting of violets was planted into cultivation soil in a plug tray and supplied water sufficiently.
The plug trays were lined up on the working stand in a green house where the temperature was controlled at 25-33 (C. The water solution of 4-chloroindole-3-acetic acid (20 ppm) was sprayed in a misty manner through an atomizer onto the surface of leaves so that the surface got wet uniformly (once).
Then, the plants were grew for 38 days with 1-2 times water supply every other day, and numbers of the cuttings with and without roots-induction and of the dead cuttings. In the control, the cuttings were sprayed only water instead of 4-chloroindole-3-acetic acid solution and grew under the same conditions as those described above.

[3] = 20 ppm water solution sprayed once onto leaves, after 38 days, of 93 cuttings

SMILES	Index for roots-induction, cutting 1 [1]	Index for roots-induction, cutting 2 [1]	Index for roots-induction, cutting 3 [1]	Index for roots-induction, cutting 4 [1]	Index for roots-induction, cutting 5 [1]	Index for roots-induction, cutting 6 [1]	Index for roots-induction, cutting 7 [1]	Index for roots-induction, cutting 8 [1]	Index for roots-induction, Total indexes [1]	Roots-inducing and fixation-stimulating actions (in words) ([2]; 20 ppm spray, versus water control)	Time at which roots-induction was observed ([2]; 20 ppm spray, roots checked by digging up at random, no statistical analysis, control only after 7 days)	Cuttings with roots-induction (number of cuttings) [2, 3]	Cuttings without roots-induction (%) [2, 3]	Cuttings without roots-induction (number of cuttings) [2, 3]	Dead cuttings (%) [2, 3]	Dead cuttings (number of cuttings) [2, 3]	Cuttings with roots-induction (%) ([2]; 20 ppm water solution sprayed once onto leaves, after 38 days, of 93 cuttings, listed as 4-Cl-iAA)	Cuttings with roots-induction (%) ([2]; 20 ppm water solution sprayed once onto leaves, after 38 days, of 93 cuttings, listed as 4-chloroindole-3-acetic acid)
CCC(C)OC(=O)Cc1c[nH]c2cccc(Cl)c12 (racemic) [4-Cl-IAA 2-Bu]	2 (The cuttings with 10-19 roots per a cutting)	2 (The cuttings with 10-19 roots per a cutting)	2 (The cuttings with 10-19 roots per a cutting)	2 (The cuttings with 10-19 roots per a cutting)	1 (The cuttings with 5-9 roots per a cutting)	1 (The cuttings with 5-9 roots per a cutting)	0 (The cuttings with less than 4 roots (including no roots))	0 (The cuttings with less than 4 roots (including no roots))	10	–	–	–	–	–	–	–	–	–
CCCCOC(=O)Cc1c[nH]c2cccc(Cl)c12 [4-Cl-IAA 1-Bu]	2 (The cuttings with 10-19 roots per a cutting)	2 (The cuttings with 10-19 roots per a cutting)	2 (The cuttings with 10-19 roots per a cutting)	2 (The cuttings with 10-19 roots per a cutting)	1 (The cuttings with 5-9 roots per a cutting)	1 (The cuttings with 5-9 roots per a cutting)	0 (The cuttings with less than 4 roots (including no roots))	0 (The cuttings with less than 4 roots (including no roots))	10	–	–	–	–	–	–	–	–	–
CC(C)OC(=O)Cc1c[nH]c2cccc(Cl)c12 [4-Cl-IAA 2-Pr]	2 (The cuttings with 10-19 roots per a cutting)	2 (The cuttings with 10-19 roots per a cutting)	2 (The cuttings with 10-19 roots per a cutting)	2 (The cuttings with 10-19 roots per a cutting)	2 (The cuttings with 10-19 roots per a cutting)	1 (The cuttings with 5-9 roots per a cutting)	0 (The cuttings with less than 4 roots (including no roots))	0 (The cuttings with less than 4 roots (including no roots))	11	–	–	–	–	–	–	–	–	–
C=CCOC(=O)Cc1c[nH]c2cccc(Cl)c12 [4-Cl-IAA Ally]	3 (The cuttings with 20 or more roots per a cutting)	3 (The cuttings with 20 or more roots per a cutting)	2 (The cuttings with 10-19 roots per a cutting)	2 (The cuttings with 10-19 roots per a cutting)	2 (The cuttings with 10-19 roots per a cutting)	1 (The cuttings with 5-9 roots per a cutting)	1 (The cuttings with 5-9 roots per a cutting)	0 (The cuttings with less than 4 roots (including no roots))	14	–	–	–	–	–	–	–	–	–
CCOC(=O)Cc1c[nH]c2cccc(Cl)c12 [4-Cl-IAA Et]	3 (The cuttings with 20 or more roots per a cutting)	3 (The cuttings with 20 or more roots per a cutting)	3 (The cuttings with 20 or more roots per a cutting)	3 (The cuttings with 20 or more roots per a cutting)	3 (The cuttings with 20 or more roots per a cutting)	2 (The cuttings with 10-19 roots per a cutting)	1 (The cuttings with 5-9 roots per a cutting)	0 (The cuttings with less than 4 roots (including no roots))	18	–	–	–	–	–	–	–	–	–
CCCOC(=O)Cc1c[nH]c2cccc(Cl)c12 [4-Cl-IAA I-Pr]	3 (The cuttings with 20 or more roots per a cutting)	3 (The cuttings with 20 or more roots per a cutting)	2 (The cuttings with 10-19 roots per a cutting)	2 (The cuttings with 10-19 roots per a cutting)	2 (The cuttings with 10-19 roots per a cutting)	2 (The cuttings with 10-19 roots per a cutting)	1 (The cuttings with 5-9 roots per a cutting)	1 (The cuttings with 5-9 roots per a cutting)	16	–	–	–	–	–	–	–	–	–
COC(=O)Cc1c[nH]c2cccc(Cl)c12 [4-Cl-IAA Me]	3 (The cuttings with 20 or more roots per a cutting)	3 (The cuttings with 20 or more roots per a cutting)	3 (The cuttings with 20 or more roots per a cutting)	2 (The cuttings with 10-19 roots per a cutting)	2 (The cuttings with 10-19 roots per a cutting)	2 (The cuttings with 10-19 roots per a cutting)	0 (The cuttings with less than 4 roots (including no roots))	0 (The cuttings with less than 4 roots (including no roots))	15	–	–	–	–	–	–	–	–	–
CC(C)COC(=O)Cc1c[nH]c2cccc(Cl)c12 [4-Cl-IAA isoBu]	2 (The cuttings with 10-19 roots per a cutting)	2 (The cuttings with 10-19 roots per a cutting)	2 (The cuttings with 10-19 roots per a cutting)	1 (The cuttings with 5-9 roots per a cutting)	1 (The cuttings with 5-9 roots per a cutting)	0 (The cuttings with less than 4 roots (including no roots))	0 (The cuttings with less than 4 roots (including no roots))	0 (The cuttings with less than 4 roots (including no roots))	8	–	–	–	–	–	–	–	–	–
CCCCCOC(=O)Cc1c[nH]c2cccc(Cl)c12 [4-Cl-IAA pentyl]	2 (The cuttings with 10-19 roots per a cutting)	2 (The cuttings with 10-19 roots per a cutting)	2 (The cuttings with 10-19 roots per a cutting)	2 (The cuttings with 10-19 roots per a cutting)	1 (The cuttings with 5-9 roots per a cutting)	1 (The cuttings with 5-9 roots per a cutting)	0 (The cuttings with less than 4 roots (including no roots))	0 (The cuttings with less than 4 roots (including no roots))	10	–	–	–	–	–	–	–	–	–
O=C(O)Cc1c[nH]c2cccc(Cl)c12 [4-Cl-IAA, 4-chloroindole-3-acetic acid]	3 (The cuttings with 20 or more roots per a cutting)	2 (The cuttings with 10-19 roots per a cutting)	2 (The cuttings with 10-19 roots per a cutting)	2 (The cuttings with 10-19 roots per a cutting)	2 (The cuttings with 10-19 roots per a cutting)	2 (The cuttings with 10-19 roots per a cutting)	0 (The cuttings with less than 4 roots (including no roots))	0 (The cuttings with less than 4 roots (including no roots))	13	extremely prominent	around 3 days	74	(6) %	6	(14) %	13	(80) %	80%

— patent US20030083202A1, “Roots-inducing agent of plants and its treatment method” (priority 2001, published 2003)
